Data: article PMC10214512 (2023)

Columns and labels:
[1] = tested on: Cy5 NRAS 5'UTR G4 (RNA, G4) UGUGGGAGGGGCGGGUCUGGGUGC; assay: fluorescence quenching (Cy5); conditions: 100 mM KCl, 10 mM MgCl2
[2] = tested on: Cy5 NRAS 5'UTR G4 (RNA, G4) UGUGGGAGGGGCGGGUCUGGGUGC; assay: MST thermophoresis; conditions: 100 mM KCl, 10 mM MgCl2; binding only at millimolar concentrations, KD not established; label of G4 construct not stated for this assay
[3] = 20 mM HEPES pH 7.4, 25 °C, group value close to 200 nM

SMILES | KD [1, 3] [nM] | also measured
NCCOc1cc(C(=O)Nc2cc(OCCN)c3ccccc3n2)nc(C(=O)Nc2cc(OCCN)c3ccccc3n2)c1 | – | KD ([1]; 20 mM HEPES pH 7.4, 25 °C read after 30 min at 4 °C, 50 nM RNA): 26 nM
NCCOc1cc(NC(=O)c2cc(OCc3cn(CCC(=O)O)nn3)cc(C(=O)Nc3cc(OCCN)c4ccccc4n3)n2)nc2ccccc12 | 191 | –
NCCOc1cc(NC(=O)c2cc(OCc3cn(CCOCCOCCOCCOCCOCCn4ccnc4)nn3)cc(C(=O)Nc3cc(OCCN)c4ccccc4n3)n2)nc2ccccc12 | 137 | –
NCCOc1cc(NC(=O)c2cc(OCc3cn(CCOCCOCCOCCn4ccnc4)nn3)cc(C(=O)Nc3cc(OCCN)c4ccccc4n3)n2)nc2ccccc12 | 211 | –
[N-]=[N+]=NCCOCCOCCOCCOCCOCCn1ccnc1 | – | binding [2]: weak
